Literature values, collected in patent publication US20060040003A1, “Dietary supplement for supressing appetite, enhancing and extending satiety, improving glycemic control, and stimulant free” (priority 2004, published 2006).

Target: T1, plasma albumin (Homo sapiens, UniProt P02768)
T1 construct: host or cells: blood plasma (circulation)
T1 sequence (P02768 25-609): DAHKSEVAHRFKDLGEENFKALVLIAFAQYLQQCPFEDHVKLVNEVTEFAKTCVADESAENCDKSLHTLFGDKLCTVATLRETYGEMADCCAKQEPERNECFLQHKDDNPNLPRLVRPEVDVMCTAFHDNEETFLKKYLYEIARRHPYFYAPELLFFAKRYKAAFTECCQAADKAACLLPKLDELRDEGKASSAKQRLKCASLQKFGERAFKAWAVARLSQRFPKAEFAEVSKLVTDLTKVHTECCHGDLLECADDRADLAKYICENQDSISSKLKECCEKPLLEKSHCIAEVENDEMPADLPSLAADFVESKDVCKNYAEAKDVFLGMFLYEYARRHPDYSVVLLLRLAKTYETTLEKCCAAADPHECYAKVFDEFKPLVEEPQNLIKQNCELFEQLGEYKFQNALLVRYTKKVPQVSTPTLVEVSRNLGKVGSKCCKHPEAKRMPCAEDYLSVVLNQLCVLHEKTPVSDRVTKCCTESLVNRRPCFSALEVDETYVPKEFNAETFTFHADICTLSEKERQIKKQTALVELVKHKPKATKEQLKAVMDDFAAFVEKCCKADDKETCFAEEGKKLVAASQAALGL

circulating in the blood as free tryptophane: 20%
Structure (SMILES): N[C@@H](Cc1c[nH]c2ccccc12)C(=O)O [tryptophane]
